Patent publication US20090106856A1, “Selection System for Wheat” (BASF PLANT SCIENCE GMBH, priority 2005, published 2009)

How the values were obtained:
wheat in vitro shoots = assay: Killing curve: rooting of in vitro shoots; assay type: in vivo, Triticum aestivum
Source text: […] The effect of selection agents was observed two and tree weeks later. Number of plantlets with growing roots and green leaves were scored.
In vitro regenerated shoots from media lacking the selection compounds were collected and transferred on medium for rooting (½ MS salts hormone free). Roots formation, growth of the shoots and leaves elongation was scored two and four weeks later after sub culturing of these shoots to the medium supplemented with D-amino acids (Table 5).

[1] = tested on: wheat variety Canon immature embryos / embryogenic callus; assay: Agrobacterium-mediated transformation with dsdA constructs and selection of transgenic plants; assay type: cell-based, Triticum aestivum
Description: (§1) Explants were washed with PAW-Inf. medium and immersed in the above-described bacterial suspension for 2 h at 26° C. At the end of infection the explants were placed with scutellum side up on PAW-1 medium. The residual bacterial suspension is removed by pipeting out and air-drying of the infected embryos by opening plates for 15 min on the sterile banch. Plates were sealed with Parafilm and placed in thermostat at 26° C. in the dark for 5-6 days co-cultivation.
(§2) After co-cultivation period the explants were washed with sterile water and 500 mg/L Cefotaxime and filter paper dried before being transferred to PAW-2 callus induction-recovery medium containing 160 mg/l Timentin for 14 days (7 days dark/7 days semi light; 13.2 μmol m^−2s^−1). Explants with embryogenic callus were subculture to PAW-2 callus-proliferation medium containing 160 mg/l Timentin and corresponding selection 5 mM D-serine or 5 mM D-alanine or 3 mg/l bialaphos. In some experiments the selection on D-amino acids was starting on PAW-2 callus induction medium 0, 7, 14 and 21 days after co cultivation. Embryogenic callus was subculture twice on fresh selective medium for callus maintaining and regeneration on PAW-4 medium with corresponding selection. Cultures were maintained at 23° C. on light 60.2 μmol m^−2s^−1. Regenerated shoots were subculture to PAW-5 hormone free medium with corresponding selection (5 mM D-serine or 5 mM D-alanine or 3 mg/l bialaphos) for further growth and rooting. All media used in the transformation experiments were filter sterilized and are listed in above. After analyses transgenic plants were transferred to soil and placed for further growth in greenhouse. 1.4 Molecular and expression studies of the transgenic plants
Freshly isolated immature embryos from Canon were inoculated with Agrobacterium. In all experiments Agrobacterium tumefacience LBA4404 (pSB1/pRLM167) (SEQ ID NO: 11) was used. The pRLM167 is a super binary vector containing p-ZmUBI+I::c-dsdA::t-OCS and p-ZmUBI+I::c-PAT::t-OCS selectable marker genes in expression cassettes (FIG. 1). Following co cultivation the explants were given a chance to recover for 14 days on callus induction selection free medium containing 160 mg/l Timentin to inhibit bacterial growth. Under these conditions 59% to 76% of the embryogenic callus developed over the all surface of immature embryos. Embryogenic callus was split in two and transferred to two the corresponding selection medium containing 5-mM D-serine or 3 mg/l bialaphos. During subsequent growth of callus, regeneration of plantlets, shoots elongation and roots formation the respective selection pressure was maintained in each of the corresponding medium. After 7 weeks of selection 38%-47% of the embryogenic calli regenerated with plants when selected on bialaphos or on D-serine respectively. Further selection of the regenerants was performed during the elongation and rooting of the regenerants for an additional 3 weeks. Intact in vitro transgenic shoots were selected within 10-12 weeks after co cultivation.
Freshly isolated immature embryos from Canon were inoculated with Agrobacterium. In all experiments Agrobacterium tumefacience super binary vector system based on LBA4404 (pSB1) was used. The constructs pRLM179, pRLM166, pRLM151 (FIG. 2. I, II and III) containing dsdA selectable marker gene alone or with a second gene (ahas or gusINT) were used for transformation. The explants were cultured on selection medium right away after co-cultivation with Agrobacterium or were cultivated on callus induction—recovery medium for 7, 14 and 21 days containing only 160 mg/l Timentin for inhibiting bacterial growth. Furthermore calli were sub cultured to fresh selection PAW-2 medium for proliferation. Embryogenic calli were transferred on PAW-4 selection medium for regeneration 5-6 weeks after transformation. The emerging plantlets were further grown and rooted on PAW-5 hormone free selection medium. […]

[2] = tested on: wheat variety Canon immature embryos / embryogenic callus; assay: Agrobacterium-mediated transformation with dao1 constructs and selection of transgenic plants; assay type: cell-based, Triticum aestivum; settings: 5 mM selection
Description: as §1, §2
Freshly isolated immature embryos from Canon were inoculated with Agrobacterium. In all experiments Agrobacterium tumefactions super binary vector system based on LBA4404 (pSB1) was used. The constructs pRLM205 containing the original dao1 gene and pRLM226 carrying modified Daol. Both constructs contain gusINT reporter marker gene (FIGS. 3, I and II). Following co cultivation the explants were transferred on callus induction PAW-2 selection free medium containing 160 mg/l Timentin to inhibit bacterial growth for 14 days. For selection embryogenic callus was transferred to PAW-2 selection medium containing 5 mM D-serine or 5 mM D-alanine respectively. Furthermore calli were sub cultured to fresh corresponding selection PAW-2 medium for maintaining. Embryogenic calli were trans-ferred on PAW-4 selection medium for regeneration 5-6 weeks after transformation. The emerging plantlets were further grown and rooted on PAW-5 hormone free selection medium. Well-developed and rooted on selection putative transgenic regenerants were selected in vitro within. When D-alanine was used as selection compound similar effects in callus growth, shoots regeneration and rooting of transgenic plants or non transgenic escapes selected on D-serine was observed. Both selection agents resulted with 1.1% to 1.2% transformation efficiency and no escape rate (Table 9).

[3] = tested on: control seedlings (wheat); assay: Spraying of seedlings with D-serine; assay type: in vivo, Triticum aestivum; settings: 5 days old control seedlings; 50-300 mM
Source text: Unlike Arabidopsis (Ericson et al. 2004a), spraying of 5 days old control and trans-genic seedlings with D-serine was not efficient in wheat. […] Watering of the plants was also not sufficient. Since the uptake, mobility in soil and detoxification by microorganisms are all potential barriers for D-serine in the soil, the expectation of in soil selection seems bleak. Therefore, that the transgenic plants will use the products from detoxification of D-serine as an additional nitrogen supply was not fulfilled in soil.

[4] = construct pRLM167 (dsdA/pat), selection on 5 mM D-serine or 3 mg/l bialaphos
[5] = pRLM179 (dsdA/AHAS), 3 mM, selection started 21 days after co-cultivation
[6] = pRLM179 (dsdA/AHAS), 5 mM, selection started 21 days after co-cultivation
[7] = pRLM179 (dsdA/AHAS), 10 mM, selection started 21 days after co-cultivation

## N[C@H](CO)C(=O)O [D-serine]
Wheat in vitro shoots; 5 mM
  root formation of non-transgenic shoots: not able to form roots
Wheat in vitro shoots; Bobwhite, 1 mM
  Rooted Shoots (%): 64%
Wheat in vitro shoots; Bobwhite, 3 mM
  Rooted Shoots (%): 24%
Wheat in vitro shoots; Bobwhite, 5 mM
  Rooted Shoots (%): 3%
Wheat in vitro shoots; Bobwhite, 10 mM
  Rooted Shoots (%): 0%
Wheat in vitro shoots; Bobwhite, 15 mM
  Rooted Shoots (%): 0%
Wheat in vitro shoots; Bobwhite, 25 mM
  Rooted Shoots (%): 0%
Wheat in vitro shoots; Canon, 1 mM
  Rooted Shoots (%): 56%
Wheat in vitro shoots; Canon, 3 mM
  Rooted Shoots (%): 16%
Wheat in vitro shoots; Canon, 5 mM
  Rooted Shoots (%): 2%
Wheat in vitro shoots; Canon, 10 mM
  Rooted Shoots (%): 0%
Wheat in vitro shoots; Canon, 15 mM
  Rooted Shoots (%): 0%
Wheat in vitro shoots; Canon, 25 mM
  Rooted Shoots (%): 0%
[1]; [4]
  ER Escape Rate (% of non-transgenic regenerants out of all selected plants): 17%
  TE Transformation Efficiency (% of transgenic plants out of the explants): 2.1%
[1]; dsdA constructs with ahas or gusINT, selection on D-serine
  Average transformation efficiencies for both constructs: about 1%
[1]; pRLM166, 5 mM, start of selection 21 days
  TE (%) Transformation Efficiency: 0.69%
[1]; [5]
  ER (%) Escapes Rate: 100%
  TE (%) Transformation Efficiency: 0%
[1]; [6]
  ER (%) Escapes Rate: 25%
  TE (%) Transformation Efficiency: 1.39%
[1]; [7]
  ER (%) Escapes Rate: 0%
  TE (%) Transformation Efficiency: 0.77%
[2]; pRLM205 (dao1 original)
  ER (%) Escape Rate: 0%
  TE (%) Transformation Efficiency: 1.1%
[2]; pRLM226 (dao1/ko modified)
  ER (%) Escape Rate: 0%
  TE (%) Transformation Efficiency: 0.72%
[3]
  toxicity symptoms after spraying: not sufficient to elicit toxicity symptoms
